# System: 496974-208-R-J2-PDC complex spheroids, growth % test/control
# Experiment: Anticancer human tumor 496974-208-R-J2-PDC patient-derived pancreatic carcinoma cell line growth inhibition [CLK]
# Conditions: for IC50: curve of first compound; for viability, T/C: stronger effect = lower value
# Procedure, shortened: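 Multi-cell-type spheroids combined patient-derived tumor cells with HUVEC endothelial cells and human mesenchymal stem cells. Paired agents were dosed in half-log steps down from about clinical Cmax, or from 10 microM where Cmax was unknown.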
# [1] = second compound 0.0316 µM, first compound 0.0316 µM
# [2] = second compound 0.0316 µM, first compound 0.1 µM
# [3] = second compound 0.1 µM, first compound 0.0316 µM
# [4] = second compound 0.1 µM, first compound 0.1 µM
# [5] = second compound 0.316 µM, first compound 0.0316 µM
# [6] = second compound 0.316 µM, first compound 0.1 µM
# [7] = second compound 1 µM, first compound 0.0316 µM
# [8] = second compound 1 µM, first compound 0.1 µM
# [9] = second compound 3.16 µM, first compound 0.0316 µM
# [10] = second compound 3.16 µM, first compound 0.1 µM
# [11] = second compound 10 µM, first compound 0.0316 µM
# [12] = second compound 10 µM, first compound 0.1 µM
# 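Further: spheroids exposed to the drugs for 7 days before readout.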
# 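Wherever viability, T/C is given: 100% = DMSO vehicle control wells.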
structure (smiles),measurement,setting,value
C=CC(=O)N1CCN(c2nc(=O)n(-c3c(C)ccnc3C(C)C)c3nc(-c4c(O)cccc4F)c(F)cc23)C(C)C1 (stereo unspecified) + CNC(=O)c1ccc(Nc2nc(OC3CCCC3)c3c(-c4ccc5nc(C)oc5c4)c[nH]c3n2)c(OC)c1,IC50,second compound 0.0316 µM,> 10000 nM
same,IC50,second compound 0.1 µM,> 10000 nM
same,IC50,second compound 0.316 µM,> 10000 nM
same,IC50,second compound 1 µM,> 10000 nM
same,IC50,second compound 3.16 µM,7280 nM
same,IC50,second compound 10 µM,4700 nM
same,"viability, T/C",[1],106%
same,"viability, T/C",[2],95.9%
same,"viability, T/C","second compound 0.0316 µM, first compound 0.316 µM",93.6%
same,"viability, T/C","second compound 0.0316 µM, first compound 1 µM",107%
same,"viability, T/C","second compound 0.0316 µM, first compound 3.16 µM",102%
same,"viability, T/C","second compound 0.0316 µM, first compound 10 µM",85.7%
same,"viability, T/C",[3],71.5%
same,"viability, T/C",[4],67.4%
same,"viability, T/C","second compound 0.1 µM, first compound 0.316 µM",78.5%
same,"viability, T/C","second compound 0.1 µM, first compound 1 µM",77.1%
same,"viability, T/C","second compound 0.1 µM, first compound 3.16 µM",73%
same,"viability, T/C","second compound 0.1 µM, first compound 10 µM",64.8%
same,"viability, T/C",[5],78.8%
same,"viability, T/C",[6],76.5%
same,"viability, T/C","second compound 0.316 µM, first compound 0.316 µM",71%
same,"viability, T/C","second compound 0.316 µM, first compound 1 µM",76.2%
same,"viability, T/C","second compound 0.316 µM, first compound 3.16 µM",71.1%
same,"viability, T/C","second compound 0.316 µM, first compound 10 µM",53.3%
same,"viability, T/C",[7],63.2%
same,"viability, T/C",[8],62.8%
same,"viability, T/C","second compound 1 µM, first compound 0.316 µM",67.7%
same,"viability, T/C","second compound 1 µM, first compound 1 µM",68.8%
same,"viability, T/C","second compound 1 µM, first compound 3.16 µM",66%
same,"viability, T/C","second compound 1 µM, first compound 10 µM",49%
same,"viability, T/C",[9],51.6%
same,"viability, T/C",[10],62.4%
same,"viability, T/C","second compound 3.16 µM, first compound 0.316 µM",52.3%
same,"viability, T/C","second compound 3.16 µM, first compound 1 µM",58.5%
same,"viability, T/C","second compound 3.16 µM, first compound 3.16 µM",55%
same,"viability, T/C","second compound 3.16 µM, first compound 10 µM",42.7%
same,"viability, T/C",[11],62%
same,"viability, T/C",[12],51.5%
same,"viability, T/C","second compound 10 µM, first compound 0.316 µM",51.6%
same,"viability, T/C","second compound 10 µM, first compound 1 µM",54.3%
same,"viability, T/C","second compound 10 µM, first compound 3.16 µM",55.7%
same,"viability, T/C","second compound 10 µM, first compound 10 µM",41%
Cn1ncnc1[C@H]1c2n[nH]c(=O)c3cc(F)cc(c23)N[C@@H]1c1ccc(F)cc1 + CNC(=O)c1ccc(Nc2nc(OC3CCCC3)c3c(-c4ccc5nc(C)oc5c4)c[nH]c3n2)c(OC)c1,IC50,second compound 0.0316 µM,> 100 nM
same,IC50,second compound 0.1 µM,> 100 nM
same,IC50,second compound 0.316 µM,> 100 nM
same,IC50,second compound 1 µM,> 100 nM
same,IC50,second compound 3.16 µM,> 100 nM
same,IC50,second compound 10 µM,> 100 nM
same,"viability, T/C","second compound 0.0316 µM, first compound 0.000316 µM",103%
same,"viability, T/C","second compound 0.0316 µM, first compound 0.001 µM",110%
same,"viability, T/C","second compound 0.0316 µM, first compound 0.00316 µM",95%
same,"viability, T/C","second compound 0.0316 µM, first compound 0.01 µM",100%
same,"viability, T/C",[1],98.2%
same,"viability, T/C",[2],85.7%
same,"viability, T/C","second compound 0.1 µM, first compound 0.000316 µM",77%
same,"viability, T/C","second compound 0.1 µM, first compound 0.001 µM",83.3%
same,"viability, T/C","second compound 0.1 µM, first compound 0.00316 µM",83.1%
same,"viability, T/C","second compound 0.1 µM, first compound 0.01 µM",94.6%
same,"viability, T/C",[3],74.6%
same,"viability, T/C",[4],78%
same,"viability, T/C","second compound 0.316 µM, first compound 0.000316 µM",82%
same,"viability, T/C","second compound 0.316 µM, first compound 0.001 µM",84%
same,"viability, T/C","second compound 0.316 µM, first compound 0.00316 µM",99.9%
same,"viability, T/C","second compound 0.316 µM, first compound 0.01 µM",80.4%
same,"viability, T/C",[5],78.3%
same,"viability, T/C",[6],67.9%
same,"viability, T/C","second compound 1 µM, first compound 0.000316 µM",72.4%
same,"viability, T/C","second compound 1 µM, first compound 0.001 µM",73.5%
same,"viability, T/C","second compound 1 µM, first compound 0.00316 µM",68.9%
same,"viability, T/C","second compound 1 µM, first compound 0.01 µM",76.7%
same,"viability, T/C",[7],74.9%
same,"viability, T/C",[8],65%
same,"viability, T/C","second compound 3.16 µM, first compound 0.000316 µM",69.3%
same,"viability, T/C","second compound 3.16 µM, first compound 0.001 µM",62.8%
same,"viability, T/C","second compound 3.16 µM, first compound 0.00316 µM",57.4%
same,"viability, T/C","second compound 3.16 µM, first compound 0.01 µM",61.5%
same,"viability, T/C",[9],67.2%
same,"viability, T/C",[10],65%
same,"viability, T/C","second compound 10 µM, first compound 0.000316 µM",55.5%
same,"viability, T/C","second compound 10 µM, first compound 0.001 µM",55%
same,"viability, T/C","second compound 10 µM, first compound 0.00316 µM",55.7%
same,"viability, T/C","second compound 10 µM, first compound 0.01 µM",54.1%
same,"viability, T/C",[11],54.2%
same,"viability, T/C",[12],52.7%
CC(C)CC(NC(=O)C(Cc1ccccc1)NC(=O)c1cnccn1)B(O)O (stereo unspecified) + CN1CCN(c2cc(C(=O)Nc3cc4cc(-c5cnn(C)c5)ccc4cn3)ccn2)CC1,IC50,second compound 0.0316 µM,4.54 nM
same,IC50,second compound 0.1 µM,3.84 nM
same,IC50,second compound 0.316 µM,< 0.949 nM
same,IC50,second compound 1 µM,< 0.949 nM
same,IC50,second compound 3.16 µM,< 0.949 nM
same,IC50,second compound 10 µM,< 0.949 nM
same,"viability, T/C","second compound 0.0316 µM, first compound 0.000949 µM",104%
same,"viability, T/C","second compound 0.0316 µM, first compound 0.003 µM",77.2%
same,"viability, T/C","second compound 0.0316 µM, first compound 0.00949 µM",1.7%
same,"viability, T/C","second compound 0.0316 µM, first compound 0.03 µM",0.32%
same,"viability, T/C","second compound 0.0316 µM, first compound 0.0949 µM",0.24%
same,"viability, T/C","second compound 0.0316 µM, first compound 0.3 µM",2.04%
same,"viability, T/C","second compound 0.1 µM, first compound 0.000949 µM",85.5%
same,"viability, T/C","second compound 0.1 µM, first compound 0.003 µM",63.1%
same,"viability, T/C","second compound 0.1 µM, first compound 0.00949 µM",2%
same,"viability, T/C","second compound 0.1 µM, first compound 0.03 µM",0.33%
same,"viability, T/C","second compound 0.1 µM, first compound 0.0949 µM",0.27%
same,"viability, T/C","second compound 0.1 µM, first compound 0.3 µM",3.67%
same,"viability, T/C","second compound 0.316 µM, first compound 0.000949 µM",6.64%
same,"viability, T/C","second compound 0.316 µM, first compound 0.003 µM",5.3%
same,"viability, T/C","second compound 0.316 µM, first compound 0.00949 µM",0.71%
same,"viability, T/C","second compound 0.316 µM, first compound 0.03 µM",0.38%
same,"viability, T/C","second compound 0.316 µM, first compound 0.0949 µM",0.51%
same,"viability, T/C","second compound 0.316 µM, first compound 0.3 µM",2.72%
same,"viability, T/C","second compound 1 µM, first compound 0.000949 µM",0.49%
same,"viability, T/C","second compound 1 µM, first compound 0.003 µM",1.07%
same,"viability, T/C","second compound 1 µM, first compound 0.00949 µM",0.68%
same,"viability, T/C","second compound 1 µM, first compound 0.03 µM",0.63%
same,"viability, T/C","second compound 1 µM, first compound 0.0949 µM",2.26%
same,"viability, T/C","second compound 1 µM, first compound 0.3 µM",1.33%
same,"viability, T/C","second compound 3.16 µM, first compound 0.000949 µM",0.5%
same,"viability, T/C","second compound 3.16 µM, first compound 0.003 µM",2.35%
same,"viability, T/C","second compound 3.16 µM, first compound 0.00949 µM",0.66%
same,"viability, T/C","second compound 3.16 µM, first compound 0.03 µM",0.53%
same,"viability, T/C","second compound 3.16 µM, first compound 0.0949 µM",1.54%
same,"viability, T/C","second compound 3.16 µM, first compound 0.3 µM",2.08%
same,"viability, T/C","second compound 10 µM, first compound 0.000949 µM",0.27%
same,"viability, T/C","second compound 10 µM, first compound 0.003 µM",0.26%
same,"viability, T/C","second compound 10 µM, first compound 0.00949 µM",1.83%
same,"viability, T/C","second compound 10 µM, first compound 0.03 µM",0.24%
same,"viability, T/C","second compound 10 µM, first compound 0.0949 µM",0.3%
same,"viability, T/C","second compound 10 µM, first compound 0.3 µM",2.65%

# — PubChem BioAssay AID2060615 (Molecular Pharmacology Branch, DTP, NCI, 2025)
